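Where inhibition never reached the appropriate level, the endpoint shown equals the highest concentration tested. Otherwise, values were interpolated linearly from a five-concentration, 48-hour dose response in 96-well plates. Abbreviation: GI50, concentration required for 50% inhibition of growth.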 Active and inactive are the calls of the source. Cut-off read from the data, not from the text of the source: active = GI50 up to about 1.1 µM and inactive = higher.
Columns and labels:
Test in all cases: inhibition of tumour cell growth, NCI panel, 48 h
A498 = system: A498
DU-145 = system: DU-145
HOP-62 = system: HOP-62
HOP-92 = system: HOP-92
K562 = system: K562
KM12 = system: KM12
M14 = system: M14
MDA-MB-435 = system: MDA-MB-435
OVCAR-4 = system: OVCAR-4
OVCAR-5 = system: OVCAR-5
OVCAR-8 = system: OVCAR-8
RXF 393 = system: RXF 393
SF-295 = system: SF-295
SK-MEL-5 = system: SK-MEL-5
SK-OV-3 = system: SK-OV-3
T47D = system: T47D
COLO 205 = system: COLO 205
SNB-19 = system: SNB-19
Malme-3M = system: Malme-3M

SMILES | GI50 (A498) | GI50 (DU-145) | GI50 (HOP-62) | GI50 (HOP-92) | GI50 (K562) | GI50 (KM12) | GI50 (M14) | GI50 (MDA-MB-435) | GI50 (OVCAR-4) | GI50 (OVCAR-5) | GI50 (OVCAR-8) | GI50 (RXF 393) | GI50 (SF-295) | GI50 (SK-MEL-5) | GI50 (SK-OV-3) | GI50 (T47D) | GI50 (COLO 205) | GI50 (SNB-19) | GI50 (Malme-3M)
COc1cc(C=C2C(C)=NN(c3cccc(Cl)c3)C23C(Cl)C(=O)N3c2nc3ccccc3s2)ccc1O (stereo not drawn) | 17.9 µM (inactive) | 21.9 µM (inactive) | 20.4 µM (inactive) | 6.7 µM (inactive) | 3.61 µM (inactive) | 5.85 µM (inactive) | 11.6 µM (inactive) | 12.4 µM (inactive) | 28.5 µM (inactive) | 20.7 µM (inactive) | 16.8 µM (inactive) | 13.5 µM (inactive) | 37.1 µM (inactive) | 17.2 µM (inactive) | 26.3 µM (inactive) | 27 µM (inactive) | – | – | –
Cc1cc2[n-][n+]3ncc(-c4ccccc4)n3c2cc1[N+](=O)[O-] | > 100 µM (inactive) | > 100 µM (inactive) | > 100 µM (inactive) | > 100 µM (inactive) | > 100 µM (inactive) | > 100 µM (inactive) | – | > 100 µM (inactive) | > 100 µM (inactive) | > 100 µM (inactive) | – | > 100 µM (inactive) | > 100 µM (inactive) | > 100 µM (inactive) | > 100 µM (inactive) | > 100 µM (inactive) | > 100 µM (inactive) | > 100 µM (inactive) | –
CC(=O)C(=[N+]=[N-])C(=O)OCCOC(=O)C(=[N+]=[N-])C(C)=O | > 1 µM (active) | > 1 µM (active) | > 1 µM (active) | > 1 µM (active) | > 1 µM (active) | > 1 µM (active) | > 1 µM (active) | > 1 µM (active) | – | > 1 µM (active) | > 1 µM (active) | > 1 µM (active) | > 1 µM (active) | > 1 µM (active) | > 1 µM (active) | > 1 µM (active) | – | > 1 µM (active) | > 1 µM (active)
COc1ccc(CCN2C(=O)C(=O)C(C(=O)c3ccccc3)C2c2ccccc2)cc1OC (stereo not drawn) | > 100 µM (inactive) | > 100 µM (inactive) | > 100 µM (inactive) | 41.7 µM (inactive) | > 100 µM (inactive) | > 100 µM (inactive) | > 100 µM (inactive) | > 100 µM (inactive) | – | > 100 µM (inactive) | > 100 µM (inactive) | > 100 µM (inactive) | 44.2 µM (inactive) | > 100 µM (inactive) | > 100 µM (inactive) | 90.8 µM (inactive) | > 100 µM (inactive) | > 100 µM (inactive) | > 100 µM (inactive)
[N-]=[N+]=C1N=CN=C1c1nc[nH]n1 | 20.2 µM (inactive) | 48.5 µM (inactive) | 35.7 µM (inactive) | 12.4 µM (inactive) | 14.9 µM (inactive) | 93.5 µM (inactive) | 40.6 µM (inactive) | 31.3 µM (inactive) | 31.8 µM (inactive) | – | 21.4 µM (inactive) | 48.8 µM (inactive) | 82.4 µM (inactive) | 57.8 µM (inactive) | > 100 µM (inactive) | 17.4 µM (inactive) | 45.1 µM (inactive) | 80.2 µM (inactive) | 10.9 µM (inactive)
CC(C)(C)OC(=O)NCC(c1c[nH]c2ccc(Br)cc12)c1c[nH]c2ccc(Br)cc12 | 14.5 µM (inactive) | 11.7 µM (inactive) | 12.7 µM (inactive) | 3.76 µM (inactive) | 15.9 µM (inactive) | 4.16 µM (inactive) | 3.56 µM (inactive) | 11.7 µM (inactive) | 7.36 µM (inactive) | 7.48 µM (inactive) | 13.4 µM (inactive) | 11.6 µM (inactive) | 9.89 µM (inactive) | 6.38 µM (inactive) | – | 10 µM (inactive) | 5 µM (inactive) | 11.2 µM (inactive) | 18.3 µM (inactive)
